Results as given in US8841413B2, “Antidiabetic compounds” (Cadila Healthcare Limited, priority 2006, dated 2014).

How the values were obtained:
[1] = tested on: RIN5F (Rat Insulinoma) cells; experiment: In vitro glucose-dependent insulin secretion (RIN5F cell assay); assay type: cell-based; details: 16.7 mM glucose load, mean ± S.D., n = 3
Experimental: After trypsinization, RIN5F cells were seeded at a concentration of 0.2×10^6·cells per well, in 12 well plates.
The supernatant was collected and the insulin amount was measured by ultra sensitive Rat insulin ELISA kit (Crystal Chem, Ill.). The protein was estimated in the supernatant using Bicinchoninic Acid kit, according to the manufacturer's protocol (Sigma Aldrich, Mo.). The total insulin content obtained in Pico-gram (pg) was divided with the total protein (μg) in order to normalize for differences in cell density between wells.

human glucagon receptor = molecular target: T1, human glucagon receptor (Homo sapiens, UniProt P47871); experiment: In vitro human glucagon antagonist activity (inhibition of cAMP production), CHO/human glucagon R cells; assay type: cell-based
T1 construct: The full-length cDNA was cloned in pcDNA3.1(Invitrogen); expressed in transfected cells
T1 sequence (P47871 26-477): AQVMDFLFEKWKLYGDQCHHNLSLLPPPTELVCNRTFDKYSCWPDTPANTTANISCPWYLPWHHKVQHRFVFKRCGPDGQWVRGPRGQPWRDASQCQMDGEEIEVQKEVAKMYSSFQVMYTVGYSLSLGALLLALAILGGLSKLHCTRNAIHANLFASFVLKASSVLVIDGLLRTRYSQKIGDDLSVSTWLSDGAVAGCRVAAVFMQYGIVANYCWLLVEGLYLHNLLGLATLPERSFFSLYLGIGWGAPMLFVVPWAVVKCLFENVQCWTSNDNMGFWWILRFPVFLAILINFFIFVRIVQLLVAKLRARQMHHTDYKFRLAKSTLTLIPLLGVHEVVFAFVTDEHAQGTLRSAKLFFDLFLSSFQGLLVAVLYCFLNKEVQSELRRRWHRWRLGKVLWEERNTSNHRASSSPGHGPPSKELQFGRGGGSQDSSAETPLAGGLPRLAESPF
Experimental: CHO cells were grown in Ham's F12 medium containing L-Glutamine (2 mM), HEPES (25 mM), NaHCO3 (1.1 g/L) and supplemented with newborn Calf Serum (NBCS; 10%), Penicillin (50 U/ml (v/v)) and Streptomycin (50 ug/ml (v/v)). Cells were split every 3 days 1:8.
The full-length cDNA was cloned in pcDNA3.1(Invitrogen). […] Clones expressing the receptor were generated by G418 (800 μg/ml active, Sigma) selection. The stable clones were thereafter maintained at 500 ug/ml (G418). The selected clone was used between passages 9-25 for cAMP assays.
The trypsin was inactivated using Ham's F12 medium containing 10% NBCS and the cells were suspended in 2 ml of complete medium. […] The medium was aspirated off from the 12 well plate and the cells were washed once using Ham's F12 (plain). […] After the incubation; the medium was removed and cells were washed once with plain Ham's F12. Subsequently, the cells were lysed by adding 500 ul of ice cold 0.1 N HCl to each well and shaking for 30 minutes at 200 rpm. The cells were then scrapped, the lysate was collected in micro centrifuge tubes and centrifuged at 12000 rpm for 10 min to remove the debris. 300 ul of supernatant from each micro-centrifuge tube was then removed into a glass tube and dried under N2 for 30 min, for cAMP estimation. The total cAMP was estimated from the sample according to the manufacturer's protocol using Cyclic AMP immunoassay kit (R&D systems, Minneapolis: MN). The remaining supernatant is used to determine the protein concentration using micro BCA (Sigma). Data is calculated as percent of control (Vehicle: water) and expressed as Mean+SD.

DPP IV = DPP IV (Homo sapiens, UniProt P27487); experiment: Stability against DPP IV enzyme; assay type: in vitro ADME; details: for % degradation in 24 h when incubated with DPP-IV enzyme: 2 μM, 37° C.; for half-life at 2 μM: DPP IV enzyme, pH 7.8, 37° C., read-out: half-life (t1/2) with DPP-IV enzyme
DPP IV, sequence (P27487 whole entry, species assumed): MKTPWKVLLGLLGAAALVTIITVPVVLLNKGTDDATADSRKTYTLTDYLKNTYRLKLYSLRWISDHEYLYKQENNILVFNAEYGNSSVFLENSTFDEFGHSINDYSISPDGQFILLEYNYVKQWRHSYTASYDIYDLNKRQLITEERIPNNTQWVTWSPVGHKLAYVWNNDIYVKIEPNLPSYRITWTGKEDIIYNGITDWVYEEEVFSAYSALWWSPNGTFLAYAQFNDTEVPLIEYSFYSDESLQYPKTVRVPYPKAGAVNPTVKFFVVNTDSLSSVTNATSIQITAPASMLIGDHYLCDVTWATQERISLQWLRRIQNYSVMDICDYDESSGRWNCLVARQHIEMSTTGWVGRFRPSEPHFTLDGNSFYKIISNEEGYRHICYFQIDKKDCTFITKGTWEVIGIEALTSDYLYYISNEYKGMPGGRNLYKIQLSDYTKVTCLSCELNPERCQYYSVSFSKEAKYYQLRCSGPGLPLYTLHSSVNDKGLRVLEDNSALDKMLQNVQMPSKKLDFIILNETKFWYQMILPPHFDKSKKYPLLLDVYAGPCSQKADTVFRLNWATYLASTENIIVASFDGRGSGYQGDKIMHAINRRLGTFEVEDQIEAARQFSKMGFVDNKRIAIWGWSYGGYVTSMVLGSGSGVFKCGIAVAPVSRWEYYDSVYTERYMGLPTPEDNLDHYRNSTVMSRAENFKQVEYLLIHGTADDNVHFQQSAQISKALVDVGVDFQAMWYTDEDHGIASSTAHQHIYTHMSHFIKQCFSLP
Method in brief: (§1)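 Quench: TFA/H2O 10% v/v. HPLC, TFA/H2O equilibration, 1 mL/min; UV 206 nm. Peaks hand-collected → ESI-MS.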

[2] = Stability in human plasma; assay type: in vitro ADME; details: for half-life at 2 μM: human, pooled human plasma, pH 7.8, 37° C., read-out: half-life (t1/2) in human plasma
Method in brief: as §1

[3] = Stability in simulated gastric fluid; assay type: in vitro ADME; details: 37° C., pH 1.5, pepsin; for % degradation in 24 h when incubated with simulated gastric fluid / half-life (t1/2) in simulated gastric fluid: 2 μM
Method in brief: as §1

[4] = Stability in simulated intestinal fluid; assay type: in vitro ADME; details: 37° C.; for % degradation in 24 h when incubated with simulated intestinal fluid / half-life (t1/2) in simulated intestinal fluid: 2 μM, pH 7.5
Method in brief: as §1

[5] = Stability against liver microsomes; assay type: in vitro ADME, human; details: for % degradation in 24 h when incubated with liver microsomes: 2 μM, 37° C.; for half-life at 2 μM: human, human liver microsomes, pH 7.8, 37° C., read-out: half-life (t1/2) with liver microsomes
Method in brief: as §1

[6] = 1 nM test compound (fourth concentration column, between 100 nM and 10 μM) with saturated concentration of glucagon peptide
[7] = 1 nM test compound with saturated concentration of glucagon peptide
[8] = 10 nM test compound with saturated concentration of glucagon peptide
[9] = 100 nM test compound with saturated concentration of glucagon peptide
[10] = 10 μM test compound with saturated concentration of glucagon peptide

SMILES	Insulin secretion ([1]; 0.1 nM test compd.)	Insulin secretion ([1]; 1 nM test compd.)	Insulin secretion ([1]; 10 nM test compd.)	Human Glucagon receptor antagonistic activity, inhibition of cAMP production of Glucagon peptide (human glucagon receptor; [6])	Human Glucagon receptor antagonistic activity, inhibition of cAMP production of Glucagon peptide (human glucagon receptor; [7])	Human Glucagon receptor antagonistic activity, inhibition of cAMP production of Glucagon peptide (human glucagon receptor; [8])	Human Glucagon receptor antagonistic activity, inhibition of cAMP production of Glucagon peptide (human glucagon receptor; [9])	Human Glucagon receptor antagonistic activity, inhibition of cAMP production of Glucagon peptide (human glucagon receptor; [10])	% degradation in 24 h when incubated with DPP-IV enzyme (DPP IV)	half-life at 2 μM (DPP IV)	% degradation in 24 h when incubated with human plasma ([2]; 2 μM, 37° C.)	half-life at 2 μM [2]	% degradation in 24 h when incubated with simulated gastric fluid [3]	half-life (t1/2) in simulated gastric fluid [3]	% degradation in 24 h when incubated with simulated intestinal fluid [4]	half-life (t1/2) in simulated intestinal fluid [4]	% degradation in 24 h when incubated with liver microsomes [5]	half-life at 2 μM [5]	also measured
CCc1cc(OC)ccc1-c1ccc(CC(NC(=O)[C@H](CC(=O)O)NC(=O)[C@H](CO)NC(=O)[C@@H](NC(=O)C(C)(Cc2ccccc2F)NC(=O)[C@@H](NC(=O)CNC(=O)[C@H](CCC(N)=O)NC(=O)[C@H](CO)NC(=O)[C@@H](N)Cc2c[nH]cn2)[C@@H](C)O)[C@@H](C)O)C(=O)NC(Cc2ccc(-c3ccccc3C)cc2)C(N)=O)cc1 (single isomer, unassigned) [compound 21]	12.3 ± 0.33 pg/µg/h	14.1 ± 0.36 pg/µg/h	28.0 ± 0.16 pg/µg/h	14 ± 0.02 pmol/ml/μg prt	19 ± 0.03 pmol/ml/μg prt	17 ± 0.08 pmol/ml/μg prt	15 ± 0.01 pmol/ml/μg prt	12 ± 0.11 pmol/ml/μg prt	76%	9 h	78%	8 h	12%	(8) h	55%	(6) h	79%	1 h	–
CCc1cc(OC)ccc1-c1ccc(CC(NC(=O)[C@H](CC(=O)O)NC(=O)[C@H](CO)NC(=O)[C@@H](NC(=O)C(C)(Cc2ccccc2F)NC(=O)[C@@H](NC(=O)CNC(=O)[C@H](CCC(N)=O)NC(=O)[C@H](CO)NC(=O)[C@@H](N)Cc2c[nH]cn2)[C@@H](C)O)[C@@H](C)O)C(=O)NC(Cc2ccc(-c3ccccc3C)nc2)C(N)=O)cc1 (single isomer, unassigned) [compound 22]	12.1 ± 0.42 pg/µg/h	14.6 ± 0.41 pg/µg/h	27.8 ± 0.46 pg/µg/h	18 ± 0.03 pmol/ml/μg prt	21 ± 0.11 pmol/ml/μg prt	19 ± 0.02 pmol/ml/μg prt	18 ± 0.07 pmol/ml/μg prt	16 ± 0.02 pmol/ml/μg prt	75%	9 h	77%	8 h	14%	(8) h	45%	(6) h	81%	1 h	–
CCc1cc(OC)ccc1-c1ccc(CC(NC(=O)[C@H](CC(=O)O)NC(=O)[C@H](CO)NC(=O)[C@@H](NC(=O)C(C)(Cc2ccccc2F)NC(=O)[C@@H](NC(=O)CNC(=O)[C@H](CCC(N)=O)NC(=O)[C@H](C)NC(=O)[C@@H](N)Cc2c[nH]cn2)[C@@H](C)O)[C@@H](C)O)C(=O)NC(Cc2ccc(-c3ccccc3F)cc2)C(N)=O)cc1 (single isomer, unassigned) [compound 27]	12.6 ± 0.25 pg/µg/h	15.3 ± 0.31 pg/µg/h	29.7 ± 0.48 pg/µg/h	3 ± 0.12 pmol/ml/μg prt	14 ± 0.02 pmol/ml/μg prt	11 ± 0.03 pmol/ml/μg prt	7 ± 0.22 pmol/ml/μg prt	0 pmol/ml/μg prt	86%	9 h	70%	8 h	15%	(8) h	41%	(6) h	77%	1 h	–
CCc1cc(OC)ccc1-c1ccc(CC(NC(=O)[C@H](CC(=O)O)NC(=O)[C@H](CO)NC(=O)[C@@H](NC(=O)[C@H](Cc2ccccc2)NC(=O)[C@@H](NC(=O)CNC(=O)[C@H](CCC(N)=O)NC(=O)[C@H](CO)NC(=O)[C@@H](N)Cc2c[nH]cn2)[C@@H](C)O)[C@@H](C)O)C(=O)NC(Cc2ccc(-c3ccccc3C)nc2)C(N)=O)cc1 (single isomer, unassigned) [compound 6]	12.4 ± 0.26 pg/µg/h	15.2 ± 0.33 pg/µg/h	29.6 ± 0.51 pg/µg/h	–	–	–	–	–	75%	–	77%	–	100%	–	100%	–	100%	0.5 h	half-life (t1/2) in human plasma ([2]; 2 μM, 37° C.): (9) h; half-life at 2 μM ([3]; simulated gastric fluid with pepsin, read-out: half-life (t1/2) in simulated gastric fluid): 0.5 h; half-life at 2 μM ([4]; simulated intestinal fluid, pH 7.5, read-out: half-life (t1/2) in simulated intestinal fluid): 0.5 h
